{"source": "patent US6194434A", "about": "“Cycloalkylaminomethylpyrrolidine derivatives” (Daiichi Pharmaceutical Co., Ltd., priority 1996, dated 2001)", "assay_in_all_cases": "Antimicrobial activity (MIC), standard method of the Japan Chemotherapeutic Society", "assay_type_in_all_cases": "cell-based", "key": {"Ps. aeruginosa, 32104": {"tested_on": "Ps. aeruginosa, 32104", "text": "(§1) The antimicrobial activity of the compounds obtained in Examples 1 to 3 was examined in accordance with the standard method specified by the Japan Chemotherapeutic Society."}, "E. coli, NIHJ": {"tested_on": "E. coli, NIHJ", "text": "as §1"}, "[1]": {"tested_on": "Str. faecalis, ATCC-19433", "text": "as §1"}, "Pr. vulgaris, 08601": {"tested_on": "Pr. vulgaris, 08601", "text": "as §1"}, "S. epidermidis, 56500": {"tested_on": "S. epidermidis, 56500", "text": "as §1"}, "S. flexneli, 2A 5503": {"tested_on": "S. flexneli, 2A 5503", "text": "as §1"}, "S. aureus, 209P": {"tested_on": "S. aureus, 209P", "text": "as §1"}, "Ser. marcescens, 10100": {"tested_on": "Ser. marcescens, 10100", "text": "as §1"}, "Pr. mirabilis, IFO-3849": {"tested_on": "Pr. mirabilis, IFO-3849", "text": "as §1"}, "Ps. aeruginosa, 32121": {"tested_on": "Ps. aeruginosa, 32121", "text": "as §1"}, "S. aureaus, 870307": {"tested_on": "S. aureaus, 870307", "text": "as §1"}, "Str. pyrogenes, G-36": {"tested_on": "Str. pyrogenes, G-36", "text": "as §1"}, "[2]": {"tested_on": "Ps. maltophilia, IID-1275", "text": "as §1"}, "[3]": {"settings": "Pseudomonas aeruginosa, read-out: MIC"}}, "note": "Like-named read-outs stand apart in the source and are kept apart here."}
{"smiles": "Cc1c(N2CC[C@H](CNC3CC3)C2)c(F)c(N)c2c(=O)c(C(=O)O)cn([C@@H]3C[C@@H]3F)c12.Cl", "note": "[Example 3, 5-Amino-7-[(3R)-N-cyclopropylaminomethyl-1-pyrrolidinyl]-6-fluoro-1-[(1R,2S)-2-fluorocyclopropyl]-1,4-dihydro-8-methyl-4-oxoquinoline-3-carboxylic Acid Hydrochloride]", "values": [{"measurement": "MIC", "setting": "Ps. aeruginosa, 32104", "value": 0.39, "unit": "µg/mL"}, {"measurement": "MIC", "setting": "E. coli, NIHJ", "value": 0.006, "unit": "µg/mL"}, {"measurement": "MIC", "setting": "[1]", "value": 0.05, "unit": "µg/mL"}, {"measurement": "MIC", "setting": "Pr. vulgaris, 08601", "value": 0.05, "unit": "µg/mL"}, {"measurement": "MIC", "setting": "S. epidermidis, 56500", "value": 0.006, "unit": "µg/mL"}, {"measurement": "MIC", "setting": "S. flexneli, 2A 5503; S. flexneli, 2A 5503", "value": 0.006, "unit": "µg/mL"}, {"measurement": "MIC", "setting": "S. aureus, 209P", "value": "≤ 0.003", "unit": "µg/mL"}, {"measurement": "MIC", "setting": "Ser. marcescens, 10100", "value": 0.20, "unit": "µg/mL"}, {"measurement": "MIC", "setting": "Pr. mirabilis, IFO-3849", "value": 0.10, "unit": "µg/mL"}, {"measurement": "MIC", "setting": "Ps. aeruginosa, 32121", "value": 0.20, "unit": "µg/mL"}, {"measurement": "MIC", "setting": "S. aureaus, 870307", "value": 0.025, "unit": "µg/mL"}, {"measurement": "MIC", "setting": "Str. pyrogenes, G-36", "value": 0.013, "unit": "µg/mL"}, {"measurement": "MIC", "setting": "[2]", "value": 0.10, "unit": "µg/mL"}]}
{"smiles": "COc1c(N2CC[C@H](CNC3CC3)C2)c(F)c(N)c2c(=O)c(C(=O)O)cn([C@@H]3C[C@@H]3F)c12", "note": "[Example 2, 5-Amino-7-[3-(R)-(N-cyclopropylaminomethyl)-1-pyrrolidinyl]-6-fluoro-1-[(1R,2S)-2-fluorocyclopropyl]-1,4-dihydro-8-methoxy-4-oxocquinoline-3-carboxylic Acid]", "values": [{"measurement": "MIC", "setting": "Ps. aeruginosa, 32104", "value": 0.78, "unit": "µg/mL"}, {"measurement": "MIC", "setting": "E. coli, NIHJ", "value": 0.006, "unit": "µg/mL"}, {"measurement": "MIC", "setting": "[1]", "value": 0.10, "unit": "µg/mL"}, {"measurement": "MIC", "setting": "Pr. vulgaris, 08601", "value": 0.10, "unit": "µg/mL"}, {"measurement": "MIC", "setting": "S. epidermidis, 56500", "value": 0.013, "unit": "µg/mL"}, {"measurement": "MIC", "setting": "S. flexneli, 2A 5503; S. flexneli, 2A 5503", "value": 0.013, "unit": "µg/mL"}, {"measurement": "MIC", "setting": "S. aureus, 209P", "value": "≤ 0.003", "unit": "µg/mL"}, {"measurement": "MIC", "setting": "Ser. marcescens, 10100", "value": 0.39, "unit": "µg/mL"}, {"measurement": "MIC", "setting": "Pr. mirabilis, IFO-3849", "value": 0.20, "unit": "µg/mL"}, {"measurement": "MIC", "setting": "Ps. aeruginosa, 32121", "value": 0.78, "unit": "µg/mL"}, {"measurement": "MIC", "setting": "S. aureaus, 870307", "value": 0.05, "unit": "µg/mL"}, {"measurement": "MIC", "setting": "Str. pyrogenes, G-36", "value": 0.025, "unit": "µg/mL"}, {"measurement": "MIC", "setting": "[2]", "value": 0.20, "unit": "µg/mL"}]}
{"smiles": "Cc1c(N2CC[C@H](CNC3CC3)C2)c(F)cc2c(=O)c(C(=O)O)cn([C@@H]3C[C@@H]3F)c12", "note": "[Example 1, 7-[3-(R)-Cyclopropylaminomethyl-1-pyrrolidinyl]-6-fluoro-1-[(1R,2S)-2-fluorocyclopropyl]-1,4-dihydro-8-methyl-4-oxoquinoline-3-carboxylic Acid]", "values": [{"measurement": "MIC", "setting": "Ps. aeruginosa, 32104; [3]", "value": 0.2, "unit": "µg/mL"}, {"measurement": "MIC", "setting": "E. coli, NIHJ; Escherichia coli, read-out: MIC", "value": "≤ 0.003", "unit": "µg/mL"}, {"measurement": "MIC", "setting": "[1]; Enterococcus faecalis, ATCC19433, read-out: MIC", "value": 0.025, "unit": "µg/mL"}, {"measurement": "MIC", "setting": "Pr. vulgaris, 08601; Proteus vulgaris, read-out: MIC", "value": 0.006, "unit": "µg/mL"}, {"measurement": "MIC", "setting": "S. epidermidis, 56500; Staphylococcus epidermidis, read-out: MIC", "value": 0.013, "unit": "µg/mL"}, {"measurement": "MIC", "setting": "S. flexneli, 2A 5503", "value": 0.006, "unit": "µg/mL"}, {"measurement": "MIC", "setting": "S. aureus, 209P; Staphylococcus aureus, read-out: MIC", "value": "≤ 0.003", "unit": "µg/mL"}, {"measurement": "MIC", "setting": "Ser. marcescens, 10100; Serratia marcescens, read-out: MIC", "value": 0.1, "unit": "µg/mL"}, {"measurement": "MIC", "setting": "Pr. mirabilis, IFO-3849; Proteus mirabilis, IFO3849, read-out: MIC", "value": 0.025, "unit": "µg/mL"}, {"measurement": "MIC", "setting": "Ps. aeruginosa, 32121; [3]", "value": 0.1, "unit": "µg/mL"}, {"measurement": "MIC", "setting": "S. aureaus, 870307; read-out: MIC", "value": 0.025, "unit": "µg/mL"}, {"measurement": "MIC", "setting": "Str. pyrogenes, G-36; read-out: MIC", "value": 0.013, "unit": "µg/mL"}, {"measurement": "MIC", "setting": "[2]; Stenotrophomonas maltophilia, IID1275, read-out: MIC", "value": 0.05, "unit": "µg/mL"}]}
